According to patent publication US12257251B2, “Use of FAK inhibitor in preparation of drug for treating tumors having NRAS mutation” (INXMED (NANJING) CO., LTD., priority 2019, dated 2025):
Read-outs that look alike come from different tables or passages of the source.

Assays:
[1] = tested on: human esophageal cancer cell line KYSE-270; assay: Subcutaneous xenograft of human esophageal cancer cell line KYSE-270 in NMRI nude mice: tumor growth; assay type: in vivo, mouse; settings: for Tumor shrinkage [x/y]: BI853520 50 mg/Kg qd
Method: 1.1. Model: Subcutaneous xenograft of human esophageal cancer cell line KYSE-270 in NMRI nude mice.
1.3. Cells: KYSE-270 is an esophageal cancer cell line (Public Health England, catalog number: 94072021). Cells were cultured in T175 tissue culture flasks containing 5% CO2 at 37° C. The medium was RPMI 1640+HAM F12 (1:1) supplemented with 2% FCS and 2 mM Glutamax. Passage was performed three times a week at a ratio of 1:2.
1.4. Mice: Mice were 8 to 10 week old female mice (BomTac: NMRI-Foxn1^nu) purchased from Taconic®, Denmark. Upon arrival in the animal room, the mice were allowed to acclimate for at least 5 days before being used for assay. The animals were housed under standard conditions (temperature: 21.5±1.5° C., humidity: 55+10%), 7 to 10 mice for each group. A standard diet and autoclaved tap water were provided for ad libitum feeding. A subcutaneous microchip implanted under isoflurane anesthesia was used to identify each mouse.
1.5. Random establishment of tumors: To establish subcutaneous tumors, KYSE-270 cells were harvested by centrifugation, washed and resuspended in PBS+5% FCS at a concentration of 5×10^7 cells/ml. Then 100 l of cell suspension containing 5×10^6 cells was injected subcutaneously into the right flank of mice (1 site per mouse). When tumors were well established and reached a volume of 94 to 252 mm^3, mice were randomly assigned to the treatment group and the control group (13 days after cell injection).
1.6. Administration: BI 853520 was suspended in 0.5% hydroxyethyl cellulose, which was administered intragastrically through gavage needle every day, and the dosage was 10 mL/Kg body weight. Paclitaxel was dissolved in saline (0.9% NaCl), which was administered intravenously in a volume of 10 ml/kg body weight. The suspension of BI853520 could be used for up to 7 days. Paclitaxel solution was stored at 6° C. and used for up to 14 days.
1.7. Monitoring tumor growth and side effects: Tumor diameters were measured with calipers three times a week. The volume [mm^3] of each tumor was calculated according to the equation “tumor volume=length×diameter^2×π/6”. To monitor the side effects of the treatment, the mice were checked daily for abnormalities and their body weights were measured three times a week. For ethical reasons, animals with tumors larger than 1.5 cm in diameter, ulcerated tumors, or 20% body weight loss were euthanized.
Statistical assessment of tumor volume and body weight on day 13 was performed. Animal number 1 (control group) was excluded from the statistical evaluation because of weight loss and had to be euthanized early (day 9). Measured tumor volume was used as the target variable in the statistical analysis. The number of animals and the median, minimum and maximum tumor volumes in each group were calculated. For a quick overview of possible treatment effects, the median tumor volume for each treatment group T and the median tumor volume for the control group C were used to calculate TGI: TGI=100×[(Cd−C1)−(Td−T1)]/(Cd−C1) • wherein, C1, T1=median tumor volume in control and treatment groups at the start of the assay (day 1). • Cd, Td=median tumor volume in control and treatment groups at the end of the assay (day 13).
The wilcoxon test was used for comparison. For body weight, the percent change relative to initial body weight on day 1 was used as the target variable for statistical analysis. The number of animals, and the median, minimum and maximum weight changes in each group were calculated.
One-sided test to compare all treatment groups with control group was performed for observing: • reduction in tumor volume (inhibition of tumor growth, efficacy parameter) and • reduction in weight changes (weight loss, tolerance parameters).
Within each subtopic, p-values for the efficacy parameter were compared and adjusted for multiple times according to Bonferroni-Holm. The p-value for the tolerance parameter was kept constant so as not to overlook possible side effects. […]

[2] = tested on: Ba/F3-NRAS^G12D cell line; assay: Antiproliferative test (CellTiter Glo, 48 hours) in NRAS^G12D-transfected Ba/F3 cells; assay type: cell-based, murine; settings: for IC50: Mus musculus
Method: The Ba/F3 cell line was obtained from ATCC in 2009, and cultured according to a method described in Zhang X Ren R. Bcr-abl efficiently induces a myeloproliferative disease and production of excess interleukin-3 and granulocyte-macrophage colony-stimulating factor in mice: A novel model for chronic myelogenous leukemia. Blood., 1998, 92: 3829-40. Growth factor-dependent BA/F3 cells were cultured in RPMI 1640 including 10% FBS and supplemented with 15% WEHI-3 conditioned medium or recombinant IL-3 (Roche) as a source of IL-3 at a final concentration of 1 ng/ml. […] Cancer Res., 2007, 67: 7139-46 and Fredericks J, Ren R. The role of RAS effectors in BCRIABL induced chronic myelogenous leukemia. Front Med China., 2013, 7: 452-61. Upon receipt of the original stock, cells were expanded and frozen at a low passage rate (<3). Frozen cells were thawed and used in this study, with cell passages limited to 15 for all experimental procedures. All cells were tested regularly to ensure freedom and maintenance in a normal state of mycoplasma.
NRAS^G12D-transfected Ba/F3 (Ba/F3-N) or KRAS^G12D-transfected Ba/F3 ([…]) cells were seeded into 96-well cell culture cluster plate in 100 μL of medium at a density of 5,000 cells per well. BI853520 was diluted 3-fold with RPMI 1640 at 9 points, and added according to the volume of each well, starting at 10 μmol/L to reach a 3-fold concentration gradient (final solvent concentration <1/1000). PD0325901 was used as a positive control. After 48 hours of incubation, cell viability was measured using CellTiter Glo (Promega). Luminescence was detected using an Envision plate reader (PerkinElmer). The calculation method of Z factor was as described in Zhang J H, Chung T D Y, Oldenburg K R. A simple statistical parameter for use in evaluation and validation of high throughput screening assays. J Biomol Screen., 1999, 4: 67-73, and the following analysis only used data with Z factor >0.6. […]

[3] = in vivo

COc1cc(C(=O)NC2CCN(C)CC2)c(F)cc1Nc1ncc(C(F)(F)F)c(Oc2cccc3c2C(=O)N(C)C3)n1 [BI853520]
TGI ([1]; BI853520 50 mg/Kg qd p.o., day 13): 106% | Tumor shrinkage [x/y] ([1]; day 13, 50 mg/kg): 6/7 | Tumor shrinkage [x/y] ([1]; day 13, listed as BI 853520, 50 mg/kg): 6 of 7 | Inhibition of tumor growth (in words) ([1]; BI 853520 50 mg/kg): statistically significant inhibition of tumor growth | Median tumor volume ([1]; BI 853520 50 mg/kg per day, day 13 (start 175 mm^3)): 126 mm^3 | Increase of IC50 after addition of IL-3 ([2]; + IL-3 versus − IL-3): more than 4 fold | IC50 ([2]; BaF3, after addition of IL-3, 48 hours, read-out: IC50 (antiproliferative effect), + IL-3): 15 µM | IC50 ([2]; BaF3, without IL-3, 48 hours, read-out: IC50 (antiproliferative effect), − IL-3): 3.4 µM | Highest daily dose without limiting toxicity [3]: 100 mg/kg
